“And” between values parts separate entries of the source, which are not always exact repeats. Equal entries are not always repeated. Where two headings read alike, the source gives them in different places.
Columns and labels:
[1] = test system: RNA polymerase II Serine 5 phosphorylation (CDK7) in A549 cells
Description: To evaluate inhibition of CDK7 kinase activity, a 384-well automated imaging assay was used. This assay detects Serine 5 phosphorylation on a unique heptapeptide sequence in the C-terminal domain of Rpb1 subunit of RNA polymerase II, the downstream substrate of CDK7. This heptapeptide sequence is repeated up to 52 times in the CTD of Rpb1.
RNA Polymerase II Serine 5 phosphorylation was detected using a specific rabbit Phospho-Rpb1 CTD (Ser5) antibody. A549 adenocarcinoma human alveolar basal epithelial cells were seeded in 20 μl medium (DMEM supplemented with 1% Fetal Bovine Serum (heat inactivated 30′ 56° C.), 2 mM L-glutamine, 50 U/ml penicillin 50 μg/ml streptomycin, 1 mM sodium pyruvate and 50 mM hepes) at 1000 cells/well and cultured in poly-D-lysine coated μclear 384 black plates for 20 hours at 37° C. and 5% CO2.
After incubation cells were challenged with compound for 3 hours at 37° C. and 5% CO2. DMSO was used as high control and as low control 10 μM of the following reference compound was used:
40 nl of test compounds and controls were spotted in cell plates using Echo Liquid Handler (Echo 550, Labcyte). Incubation was followed by 20 minutes fixation with 20 μl 10% formaldehyde at room temperature. Medium/formaldehyde solution was removed, plates were washed 3 times with 30 μl D-PBS (w/o Ca^2+ and Ma^2+) and permeabilization was done by adding 20 μl ice cold methanol for 20 minutes. Cells were washed again 3 times with 30 μl D-PBS and 20 μl blocking buffer (25 ml fetal bovine serum in 500 ml D-PBS) was added for 1 hour.
After removing blocking buffer 20 μl 1/1000 primary antibody rabbit Phospho-Rpb1 CTD (Ser5) antibody was added which binds to the phosphorylated Serine5 of the heptapeptide sequences in the CTD of Rpb1. […] Last, plates were washed 2 times with 30 μl D-PBS and wells were filled with 40 μL D-PBS, plates were sealed (Thermowell sealing tape) and stored at 4° C. until reading. Plates were read with Opera Phenix (Perkin Elmer) with 10× air objective. Data were calculated and analyzed in Phaedra.
IC50 values were calculated using the following formula
Average value of all HC's and all LC's are used for normalizations.
% Effect=100−(sample-LC)/(HC-LC)×100
% Control=(sample/HC)×100
From this an IC50 value can be obtained. An estimate of the slope of the plot in terms of the Hill coefficient is also obtained.

[2] = test system: RNA polymerase II Serine 5 phosphorylation in A549 cells overexpressing CDK7 mutant (C312S); assay: Imaging-based cellular RNA PolII Ser5 phosphorylation assay in A549 cells overexpressing CDK7-mutant (C312S); type: cell-based, human; conditions: Homo sapiens, A549, A549 cells overexpressing CDK7 mutant (C312S); read-out: CDK7_ A549 mutant hCDK7(pIC50) (converted)
Procedure: Data were calculated and analyzed in Phaedra.
From this an IC50 value can be obtained.
In parallel this assay was performed in A549 cells overexpressing CDK7-mutant (C312S) to evaluate the effect of the covalent bond on potency and to screen for potential off-target effects. Mutation of Cysteine to Serine (C312S), a less nucleophilic amino acid, prevents CDK7 inhibitors from covalently binding to CDK7 and from inhibiting CDK7 activity in an irreversible manner. A stably transduced A549 cell pool was generated that overexpresses CDK7 mutant (C312S), but also expresses endogenous CDK7-WT. Covalent binders targeting the cysteine at position 312 will show a shift in potency in A549 cells overexpressing mutant C312S CDK7.

[3] = molecular target: CDK7/cyclinH/MAT1 trimeric complex (Homo sapiens (Human), UniProt P50613); assay: In vitro CDK7 assay, potency of irreversible covalent inhibitors (kinact/KI)
[4] = CDK7 (20 nM enz.) (KI, μM), 20 nM enz.
[5] = read-out: CDK7 (20 nM enz.) (kinact, s^−1), 20 nM enz.
[6] = read-out: CDK7 (20 nM enz.) (kinact/ KI, M^−1*s^−1), 20 nM enz.
[7] = read-out: CDK7 (kinact, s^−1), Table B
[8] = read-out: CDK7 (kinact/KI, M^−1*s^−1), Table B

Sequence of CDK7/cyclinH/MAT1 trimeric complex (P50613 whole entry): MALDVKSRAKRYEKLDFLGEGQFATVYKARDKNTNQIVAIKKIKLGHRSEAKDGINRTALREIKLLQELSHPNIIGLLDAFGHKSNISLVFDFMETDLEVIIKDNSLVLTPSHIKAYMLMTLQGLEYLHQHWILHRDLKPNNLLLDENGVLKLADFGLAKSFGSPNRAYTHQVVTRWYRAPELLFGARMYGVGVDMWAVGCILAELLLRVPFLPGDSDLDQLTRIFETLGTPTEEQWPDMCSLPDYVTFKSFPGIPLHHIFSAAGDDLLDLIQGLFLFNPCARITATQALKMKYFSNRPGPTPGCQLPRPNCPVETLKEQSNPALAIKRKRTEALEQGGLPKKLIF
Sequence of CDK7/cyclinH/MAT1 trimeric complex (P51946 whole entry partner): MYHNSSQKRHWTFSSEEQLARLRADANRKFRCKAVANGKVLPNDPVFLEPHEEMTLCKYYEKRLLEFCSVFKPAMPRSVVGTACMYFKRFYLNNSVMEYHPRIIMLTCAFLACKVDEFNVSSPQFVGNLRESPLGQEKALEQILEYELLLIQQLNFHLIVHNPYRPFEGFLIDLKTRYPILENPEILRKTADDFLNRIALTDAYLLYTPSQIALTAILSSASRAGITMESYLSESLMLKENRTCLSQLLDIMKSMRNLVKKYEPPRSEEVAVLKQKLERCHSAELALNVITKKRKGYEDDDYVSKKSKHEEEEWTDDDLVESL
Sequence of CDK7/cyclinH/MAT1 trimeric complex (P51948 whole entry partner): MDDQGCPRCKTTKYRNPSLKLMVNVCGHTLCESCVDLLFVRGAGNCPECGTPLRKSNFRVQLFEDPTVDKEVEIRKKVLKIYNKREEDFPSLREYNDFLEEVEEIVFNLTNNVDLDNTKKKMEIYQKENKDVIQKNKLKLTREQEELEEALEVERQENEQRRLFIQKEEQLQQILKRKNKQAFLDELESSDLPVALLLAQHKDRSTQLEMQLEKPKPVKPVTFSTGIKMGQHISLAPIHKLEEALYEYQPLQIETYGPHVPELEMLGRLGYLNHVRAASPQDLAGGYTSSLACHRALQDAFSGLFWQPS

SMILES	IC50 [1]	IC50 [2] [nM]	Ki [3, 4]	kinact [3, 5] [s⁻¹]	kinact/KI [3, 6] [M⁻¹ s⁻¹]	Ki ([3]; CDK7 (KI(μM)), Table B) [µM]	kinact [3, 7] [s⁻¹]	kinact/KI [3, 8] [M⁻¹ s⁻¹]	CDK7 (20 nM enz.) (kinact, s^−1) ([3]; 20 nM enz.)	CDK7 (20 nM enz.) (kinact/ KI, M^−1*s^−1) ([3]; 20 nM enz.) [M⁻¹ s⁻¹]	CDK7 (20 nM enz.) (kobs/[I], M^−1*s^−1) ([3]; 20 nM enz.) [M⁻¹ s⁻¹]	kinact/KI ([3]; read-out: CDK7 (20 nM enz.) (kobs/[I], M^−1*s^−1), 20 nM enz.) [M⁻¹ s⁻¹]
C=CC(=O)N1CC(N2CCC(c3ccc4c(c3)Nc3ncnc(N5CCOCC5)c3[C@@H](C)O4)CC2)C1 (single isomer, unassigned) [compound 56]	3240 nM	> 10000	4.2 µM	8.48e-05	20.2	–	–	–	–	–	–	–
C=CC(=O)N1CCC(N2CC[C@H](c3cc(C)c4c(c3)Nc3ncnc(N5CCOCC5)c3CO4)C2)CC1 [compound 24]	646 nM	> 10000	0.533 µM	4.78e-05	89.6	–	–	–	–	–	–	–
C=CC(=O)N1CC[C@H](N2CCC(c3cc(F)c4c(c3)Nc3ncnc(N5CCOCC5)c3CO4)CC2)C1 (single isomer, unassigned) [compound 50]	200 nM	> 10000	0.302 µM	7.72e-05	256	–	–	–	–	–	–	–
C=CC(=O)N1CC(N2CCC(c3ccc4c(c3)Nc3ncnc(-c5ccc(=O)n(C)c5)c3CO4)CC2)C1 [compound 8]	5500 nM	> 10000	–	–	–	0.251	0.000188	749	–	–	–	–
C=CC(=O)N1CC(N2CCN(c3ccc4c(c3)Nc3ncnc(N5CCOCC5)c3CO4)CC2)C1 [compound 6]	3800 nM	> 10000	–	–	–	2.73	0.000504	185	–	–	–	–
C=CC(=O)N1CC(N2CCC(c3cc(C)c4c(c3)Nc3ncnc(-c5ccnn5C)c3CO4)CC2)C1 [compound 80]	219 nM	> 10000	0.32 µM	4.18e-05	131	–	–	–	–	–	–	–
CC#CC(=O)N1CC(N2CCC(c3cc(C)c4c(c3)Nc3ncnc(N5CCS(=O)(=O)CC5)c3[C@H](C)O4)CC2)C1 (single isomer, unassigned) [compound 150]	316 nM and 457 nM	> 10000	0.283 µM and 0.18 µM	6.55e-05	231	–	–	–	4.7e-05 s⁻¹	261.659	–	–
CC#CC(=O)N1CC(N2CCC(c3cc(C)c4c(c3)Nc3ncnc(N5CCS(=O)(=O)CC5)c3[C@@H](C)O4)CC2)C1 [compound 148]	42.7 nM and 60.3 nM and 75.9 nM and 63.1 nM and ~61.7 nM	> 10000	0.0218 µM and 0.0473 µM and 0.0348 µM and 0.00601 µM	4.04e-05	–	–	–	–	6.08e-05 s⁻¹ and 5.32e-05 s⁻¹ and 4.3e-05 s⁻¹	–	1230.83	952
C=CC(=O)N1CCC(N2CC(c3cc(C#N)c4c(c3)Nc3ncnc(N5CCOCC5)c3CO4)C2)CC1 [compound 120]	525 nM	> 10000	0.295 µM	3.8e-05	129	–	–	–	–	–	–	–
C=CC(=O)N1CCC(N2CC(c3cc(C#N)c4c(c3)Nc3ncnc(-c5cnn(C)c5)c3CO4)C2)CC1 [compound 73]	1660 nM	> 10000	1.24 µM	3.75e-05	30.2	–	–	–	–	–	–	–
C=CC(=O)N1CC(N2CC[C@@H](c3ccc4c(c3)Nc3ncnc(N5CCOCC5)c3CO4)C2)C1 [compound 10]	1820 nM	> 10000	–	–	–	0.38	0.000155	409	–	–	–	–
C=CC(=O)N1CC(N2CCC(c3ccc4c(c3)Nc3ncnc(N5CCOCC5)c3[C@H](C)O4)CC2)C1 (single isomer, unassigned) [compound 57]	263 nM	> 10000	0.0876 µM	7.7e-05	879	–	–	–	–	–	–	–
C=CC(=O)N1CC[C@H](N2CCC(c3cc(C)c4c(c3)Nc3ncnc(N5CCOCC5)c3CO4)CC2)C1 [compound 12]	457 nM and 282 nM	> 10000	0.191 µM and 0.498 µM	7.04e-05	368	–	–	–	0.0001275 s⁻¹	256.184	–	–
C=CC(=O)N1CC(N2CC(c3cc(C)c4c(c3)Nc3ncnc(-c5cnn(C)c5)c3[C@@H](C)O4)C2)C1 (single isomer, unassigned) [compound 109]	363 nM	> 10000	0.13 µM	4.5e-05	345	–	–	–	–	–	–	–
C=CC(=O)N1CC(N2CCC(c3cc(C#N)c4c(c3)Nc3ncnc(-c5cnn(C)c5)c3CO4)CC2)C1 [compound 74]	1170 nM	> 10000	0.132 µM	5.42e-05	412	–	–	–	–	–	–	–
C=CC(=O)N1CC[C@@H](N2CCC(c3cc(F)c4c(c3)Nc3ncnc(N5CCOCC5)c3CO4)CC2)C1 (single isomer, unassigned) [compound 51]	324 nM	> 10000	0.643 µM	8.79e-05	137	–	–	–	–	–	–	–

Reference: US20240109912A1, “TRICYCLIC PYRIMIDINES AS CYCLIN-DEPENDENT KINASE 7 (CDK7) INHIBITORS” (JANSSEN PHARMACEUTICA NV, priority 2020, published 2024)
